Data as given in ChEMBL document CHEMBL1926642, “Relevance of the C-5 position to schweinfurthin induced cytotoxicity” (2011).

Columns and labels:
Format in all cases: functional
SW-620 = experiment: Growth inhibition of human SW620 cells after 48 hrs by sulforhodamine B assay; settings: SW-620, 48 h; for TGI: read-out: pTGI (converted)
MCF7 = experiment: Growth inhibition of human MCF7 cells after 48 hrs by sulforhodamine B assay; settings: MCF7, 48 h; for TGI: read-out: pTGI (converted)
ACHN = experiment: Growth inhibition of human ACHN cells after 48 hrs by sulforhodamine B assay; settings: for TGI: read-out: pTGI (converted)
OVCAR-8 = experiment: Growth inhibition of human OVCAR8 cells after 48 hrs by sulforhodamine B assay; settings: OVCAR-8, 48 h; for TGI: read-out: pTGI (converted)
PC-3 = experiment: Growth inhibition of human PC3 cells after 48 hrs by sulforhodamine B assay; settings: PC-3, 48 h; for CC50: read-out: pLC50 (the source's name) (converted); for TGI: read-out: pTGI (converted)
BT-549 = experiment: Growth inhibition of human BT549 cells after 48 hrs by sulforhodamine B assay; settings: BT-549, 48 h; for TGI: read-out: pTGI (converted)
CCRF-CEM = experiment: Growth inhibition of human CCRF-CEM cells after 48 hrs by sulforhodamine B assay; settings: for TGI: read-out: pTGI (converted)
DU-145 = experiment: Growth inhibition of human DU145 cells after 48 hrs by sulforhodamine B assay; settings: DU-145, 48 h; for TGI: read-out: pTGI (converted)
UO-31 = experiment: Growth inhibition of human UO31 cells after 48 hrs by sulforhodamine B assay; settings: UO-31, 48 h; for TGI: read-out: pTGI (converted)
A549 = experiment: Growth inhibition of human A549 cells after 48 hrs by sulforhodamine B assay; settings: A549, 48 h; for TGI: read-out: pTGI (converted)
A498 = experiment: Growth inhibition of human A498 cells after 48 hrs by sulforhodamine B assay; settings: A498, 48 h; for TGI: read-out: pTGI (converted)
MDA-MB-435 = experiment: Growth inhibition of human MDA-MB-435 cells after 48 hrs by sulforhodamine B assay; settings: MDA-MB-435, 48 h; for TGI: read-out: pTGI (converted)
HCT-116 = experiment: Growth inhibition of human HCT116 cells after 48 hrs by sulforhodamine B assay; settings: HCT-116, 48 h; for TGI: read-out: pTGI (converted)
MDA-MB-231 = experiment: Growth inhibition of human MDA-MB-231/ATCC cells after 48 hrs by sulforhodamine B assay; settings: MDA-MB-231, 48 h; for CC50: read-out: pLC50 (the source's name) (converted); for TGI: read-out: pTGI (converted)
MOLT-4 = experiment: Growth inhibition of human MOLT4 cells after 48 hrs by sulforhodamine B assay; settings: MOLT-4, 48 h; for TGI: read-out: pTGI (converted)
TK-10 = experiment: Growth inhibition of human TK10 cells after 48 hrs by sulforhodamine B assay; settings: TK-10, 48 h; for TGI: read-out: pTGI (converted)
HOP-62 = experiment: Growth inhibition of human HOP62 cells after 48 hrs by sulforhodamine B assay; settings: HOP-62, 48 h; for TGI: read-out: pTGI (converted)
NCI-H23 = experiment: Growth inhibition of human NCI-H23 cells after 48 hrs by sulforhodamine B assay; settings: NCI-H23, 48 h; for TGI: read-out: pTGI (converted)
SR = experiment: Growth inhibition of human SR cells after 48 hrs by sulforhodamine B assay; settings: for TGI: read-out: pTGI (converted)
RXF 393 = experiment: Growth inhibition of human RXF393 cells after 48 hrs by sulforhodamine B assay; settings: RXF 393, 48 h; for TGI: read-out: pTGI (converted)
HT-29 = experiment: Growth inhibition of human HT-29 cells after 48 hrs by sulforhodamine B assay; settings: HT-29, 48 h; for TGI: read-out: pTGI (converted)
Malme-3M = experiment: Growth inhibition of human MALME-3M cells after 48 hrs by sulforhodamine B assay; settings: for TGI: read-out: pTGI (converted)
SF-539 = experiment: Growth inhibition of human SF539 cells after 48 hrs by sulforhodamine B assay; settings: SF-539, 48 h; for TGI: read-out: pTGI (converted)
U-251 = experiment: Growth inhibition of human U251 cells after 48 hrs by sulforhodamine B assay; settings: U-251, 48 h; for TGI: read-out: pTGI (converted)
MDA-MB-468 = experiment: Growth inhibition of human MDA-MB-468 cells after 48 hrs by sulforhodamine B assay; settings: MDA-MB-468, 48 h
OVCAR-5 = experiment: Growth inhibition of human OVCAR5 cells after 48 hrs by sulforhodamine B assay; settings: OVCAR-5, 48 h
[1] = Growth inhibition of human Hs 578T cells after 48 hrs by sulforhodamine B assay

## COc1cc(/C=C/c2cc3c(c(OC)c2)O[C@]2(C)CC[C@@H](O)C(C)(C)[C@H]2C3)cc(O)c1C/C=C(\C)CCC=C(C)C
SW-620
  GI50: 1.23 µM
  LC50: 14.1 µM
  TGI: 3.98 µM
MCF7
  GI50: 1.02 µM
  LC50: 17.4 µM
  TGI: 5.89 µM
ACHN
  GI50: 2.75 µM
  LC50: 21.4 µM
  TGI: 9.33 µM
OVCAR-8
  GI50: 5.5 µM
  LC50: 30.9 µM
  TGI: 13.2 µM
PC-3
  GI50: 0.741 µM
  CC50: 37.2 µM
  TGI: 10 µM
BT-549
  GI50: 1.05 µM
  LC50: 25.1 µM
  TGI: 9.12 µM
CCRF-CEM
  GI50: 1.41 µM
  LC50: > 50.1 µM
  TGI: 13.8 µM
DU-145
  GI50: 3.8 µM
  LC50: 22.9 µM
  TGI: 10.2 µM
UO-31
  GI50: 1.12 µM
  LC50: 21.9 µM
  TGI: 7.59 µM
A549
  LC50: 28.2 µM
  TGI: 10.5 µM
A549; read-out: GI50
  GI50: 2.45 µM
A549; read-out: pGI50 (converted)
  GI50: 2.45 µM
A498
  GI50: 1.82 µM
  LC50: 21.9 µM
  TGI: 8.32 µM
MDA-MB-435
  GI50: 4.27 µM
  LC50: 28.8 µM
  TGI: 11.7 µM
HCT-116
  GI50: 3.24 µM
  LC50: 21.9 µM
  TGI: 9.77 µM
MDA-MB-231
  GI50: 2.04 µM
  CC50: 19.5 µM
  TGI: 7.76 µM
MOLT-4
  GI50: 0.891 µM
  LC50: 33.1 µM
  TGI: 2.75 µM
TK-10
  GI50: 7.08 µM
  LC50: 32.4 µM
  TGI: 15.1 µM
HOP-62
  GI50: 0.832 µM
  LC50: 11 µM
  TGI: 2.82 µM
NCI-H23
  GI50: 5.62 µM
  LC50: 26.9 µM
  TGI: 12.3 µM
SR
  GI50: 1.02 µM
  LC50: 22.4 µM
  TGI: 3.16 µM
RXF 393
  GI50: 0.0891 µM
  LC50 (50% lethal concentration): 4.17 µM
  TGI: 0.302 µM
HT-29
  GI50: 0.398 µM
  LC50 (concentration killing 50% of cells): 13.2 µM
  TGI: 2.63 µM
Malme-3M
  GI50: 5.13 µM
  LC50: 36.3 µM
  TGI: 13.5 µM
SF-539
  GI50: 0.155 µM
  LC50: 7.59 µM
  TGI: 1.1 µM
U-251
  GI50: 0.417 µM
  LC50: 19.5 µM
  TGI: 7.76 µM

## COc1cc(/C=C/c2cc3c(c(SC)c2)O[C@]2(C)CC[C@@H](O)C(C)(C)[C@H]2C3)cc(O)c1C/C=C(\C)CCC=C(C)C
SW-620
  GI50: 6.76 µM
  LC50: 50.1 µM
  TGI: 20.9 µM
MCF7
  GI50: 7.76 µM
  LC50: > 100 µM
  TGI: 45.7 µM
MDA-MB-468
  GI50: 4.57 µM
  LC50: 87.1 µM
MDA-MB-468; read-out: pTGI (converted)
  TGI: 20 µM
ACHN
  GI50: 10.7 µM
  LC50: > 100 µM
  TGI: > 100 µM
OVCAR-8
  GI50: 14.8 µM
  LC50: > 100 µM
  TGI: 41.7 µM
PC-3
  GI50: 6.03 µM
  CC50: > 100 µM
  TGI: 51.3 µM
BT-549
  GI50: 18.6 µM
  LC50: > 100 µM
  TGI: > 100 µM
CCRF-CEM
  GI50: 5.62 µM
  LC50: > 100 µM
  TGI: > 100 µM
DU-145
  GI50: 8.71 µM
  LC50: 93.3 µM
  TGI: 29.5 µM
OVCAR-5
  GI50: 22.9 µM
  LC50: > 100 µM
OVCAR-5; read-out: pTGI (converted)
  TGI: 57.5 µM
UO-31
  GI50: 8.91 µM
  LC50: > 100 µM
  TGI: > 100 µM
A549
  LC50: > 100 µM
  TGI: 52.5 µM
A549; read-out: GI50
  GI50: 6.03 µM
A549; read-out: pGI50 (converted)
  GI50: 6.03 µM
A498
  GI50: 4.57 µM
  LC50: 67.6 µM
  TGI: 22.4 µM
MDA-MB-435
  GI50: 12.9 µM
  LC50: > 100 µM
  TGI: 74.1 µM
HCT-116
  GI50: 6.46 µM
  LC50: 53.7 µM
  TGI: 20.9 µM
[1]
  GI50: 2.4 µM
[1]; read-out: pLC50 (the source's name) (converted)
  CC50: > 100 µM
[1]; read-out: pTGI (converted)
  TGI: 19.5 µM
MDA-MB-231
  GI50: 3.39 µM
  CC50: 56.2 µM
  TGI: 14.5 µM
MOLT-4
  GI50: 4.27 µM
  LC50: > 100 µM
  TGI: 100 µM
TK-10
  GI50: 20.9 µM
  LC50: > 100 µM
  TGI: > 100 µM
HOP-62
  GI50: 12 µM
  LC50: 79.4 µM
  TGI: 30.9 µM
NCI-H23
  GI50: 11.5 µM
  LC50: > 100 µM
  TGI: 36.3 µM
SR
  GI50: 3.8 µM
  LC50: > 100 µM
  TGI: > 100 µM
RXF 393
  GI50: 1.55 µM
  LC50 (50% lethal concentration): 17.8 µM
  TGI: 4.47 µM
HT-29
  GI50: 2.09 µM
  LC50 (concentration killing 50% of cells): > 100 µM
  TGI: 16.2 µM
Malme-3M
  GI50: 30.9 µM
  LC50: > 100 µM
  TGI: > 100 µM
SF-539
  GI50: 3.98 µM
  LC50: > 100 µM
  TGI: 41.7 µM
U-251
  GI50: 5.01 µM
  LC50: 85.1 µM
  TGI: 24 µM
